We go through 1 compound from article PMC10044120, “Potent and selective covalent inhibition of the papain-like protease from SARS-CoV-2” (Nature Communications, 2023).

Like-named read-outs stand apart in the source and are kept apart here.

Data set [1] concerns SARS-CoV-2 isolate USA-WA1/2020. Briefly: microbe, parasite or virus in culture.
Data set [2] shares this test system.
The subject of another data set is Vero E6 cells. The note with it: African green monkey, 48 h.
Data set [3] addresses T1, PLpro from SARS-CoV-2 (Severe acute respiratory syndrome coronavirus 2, UniProt P0DTD1). The experiment in a line: biochemical. Type of data set: biochemical. The note with it: fluorogenic peptide assay, varied preincubation time.
A short description of a further data set: in vitro. The settings on record: African green monkey, cytotoxicity, %cell viability.
Data set [4] has as its target T1, PLpro from SARS-CoV-2. The experiment in a line: biochemical. Type of data set: biochemical.

In general, viability refers to a read-out of living cells in per cent, often relative to untreated cells. A word on the remaining activity: it is what remains of the control signal, in per cent. By IC50 is commonly meant the midpoint of a concentration-inhibition curve. A low value points to greater potency. With `C[C@@H](NC(=O)c1ccccc1CCC(=O)NNC(=O)CC#N)c1cccc2ccccc12` [Compound 11, (R)-2-(3-(2-(2-cyanoacetyl)hydrazineyl)-3-oxopropyl)-N-(1-(naphthalen-1-yl)ethyl)benzamide], the inhibition at […] in data set [1] (Severe acute respiratory syndrome coronavirus 2, Vero C1008, read-out: cytopathic effect, % cell viability) is 9.7%. For the same compound, in data set [1] (Severe acute respiratory syndrome coronavirus 2, Vero C1008, read-out: cytopathic effect, % cell viability, [inhibitor] 2.08 uM, duplicate wells), the inhibition at 2.08 µM is 8%. Further, in data set [2] (SARS-CoV-2-infected Vero E6 cells, 48 h), the “EC50 (cytopathic effect)” value is given as “No CPE”. In data set [2] (read-out: cytopathic effect, % cell viability, [inhibitor] 2.08 uM, duplicate wells, 2.08 µM), the inhibition worked out at 4.7%. Moreover, in the data set on Vero E6 cells (2.08 µM), the “cytotoxicity, %cell viability” value is 98.90%. Besides, the “cytotoxicity, %cell viability” value in the data set on Vero E6 cells (8.33 µM) was 91.20%. For the same compound, the “cytotoxicity, %cell viability” value with Vero E6 cells (16.67 µM) is listed as 87.90%. Besides, the “cytotoxicity, %cell viability” value with Vero E6 cells (33.33 µM) stood at 80.50%. The “Time dep. (time-dependent inhibition)” value on PLpro from SARS-CoV-2 [3] was “not and No”. Moreover, in the data set “in vitro”, the viability at 48 h, 2.08 µM was 101%; the viability at 48 h, 8.33 µM was found to be 94%; the viability at 48 h, 16.67 µM is 88.6%; the viability at 48 h, 33.33 µM amounted to 80.8%. The same compound yielded a remaining activity at 0.02 µM on PLpro from SARS-CoV-2 [4] (0.5 h, inhibitor 0.02 uM) of 84.4%. Also, the remaining activity at 0.2 µM on PLpro from SARS-CoV-2 [4] (0.5 h, inhibitor 0.20 uM) stood at 89.9%. This compound gave a remaining activity at 2.01 µM at PLpro from SARS-CoV-2 [4] (0.5 h, inhibitor 2.01 uM) of 71.3%. Moreover, on PLpro from SARS-CoV-2 [4] (0.5 h, inhibitor 6.34 uM), the remaining activity at 6.34 µM was found to be 46.4%. At PLpro from SARS-CoV-2 [4] (0.5 h, inhibitor 20.00 uM), this compound displayed a remaining activity at 20 µM of 41.4%. For the same compound, the remaining activity at 200 µM at PLpro from SARS-CoV-2 [4] (0.5 h, inhibitor 200.00 uM) came out at 5.83%. In addition, half-maximal inhibition at PLpro from SARS-CoV-2 [4] (after 30-min incubation, purified PLpro, Z-RLRGG-AMC substrate) (IC50) was put at 8 µM.
